Reference: paper PMC8151276, “An Integrated Approach toward NanoBRET Tracers for Analysis of GPCR Ligand Engagement” (Molecules, 2021)

Assays:
HTR1D = biological target: T1, HTR1D (Homo sapiens, UniProt P28221); experiment: NanoBRET screen HiBiT-HTR1D in HEK293; format: binding
T1 construct: purchased Promega (in-house HiBiT-GPCR construct library, NanoBRET)
Experimental: (§1) Each tracer candidate was screened across the entire library of HiBiT-GPCR constructs using NanoBRET as the detection modality. As depicted in Figure 4A, the specificity of interactions was evaluated through decrease in BRET due to competitive displacement of a bound tracer by excess parental compound. Each tracer was analyzed for binding to each HiBiT-GPCR fusion in the absence and in the presence of competing parental compound. Briefly, HEK293 cells were transfected with HiBiT-GPCR constructs diluted into promoterless DNA to reduce expression and maximize translocation to the cell surface. Each tracer candidate was then screened at concentrations of 1 μM and 0.1 μM across cells expressing these fusions. Cells were treated for 1.5 h with tracer either alone or in the presence of 20 μM competing parental compound (i.e., control). BRET was measured upon addition of purified LgBiT and subsequent complementation with HiBiT genetically fused to a GPCR. The specificity of interactions was assessed through a decrease in BRET signal due to competitive displacement of the bound tracer. To further gauge the robustness of these interactions, the fold response over the control (i.e., BRETtracer/BRETcontrol) was calculated. We chose a 1.5-fold response, which translates to ≥7-fold signal over noise as the minimal threshold required to score an interaction as positive. […]. Below we highlight the screening results obtained for our exemplary fluorescent tracers based on Clozapine, Amitriptyline and AZD1283.
(§2) HiBiT-GPCR DNA constructs were diluted in 10 mM Tris pH 8 to a final concentration of 0.01 μg/μL, arrayed in 96-well plates and stored at −20 °C. For transfection, HEK293 cells were suspended in Opti-MEM (without phenol red) supplemented with 2% fetal bovine serum (Seradigm) and 100 units/mL penicillin–streptomycin (Gibco) at a final concentration of 220,000 cells/mL and dispensed into white 96-well plates at 90 μL/well. Subsequent transfections and screens were carried using an Agilent Bravo Automated Liquid Handling Platform. First, the 96-well HiBiT DNA arrays were diluted 25-fold in Opti-MEM (without serum or phenol red) to a final concentration of 0.0004 μg/μL and 20 μL of the diluted DNAs were transferred into new 96-well plates. Next, promoterless carrier DNA (1 μg/μL) was diluted 25-fold (0.04 μg/μL) and then dispensed into the diluted arrays at 20 μL/well. Following brief mixing, Viafect transfection reagent (Promega) diluted 16-fold into Opti-MEM was dispensed into the plates at 40 μL/well. After mixing by pipetting, plates were incubated for 10 min on the pipetting station deck. The DNA-transfection reagent complexes were then added to plates containing cells. To facilitate the screen, 10 μL of DNA-transfection reagent complexes were added in duplicates to the top 4 and bottom 4 rows, resulting in two identical 48-well arrays per plate. Plates with transfected cells were incubated for 18–20 h at 37 °C/5% CO2. A screen of each tracer across the entire library using two different concentrations requires duplicate plates of transfected cells. Depending on the number of tracers being screened, transfections can be scaled up using the same ratios. The next day, for each tracer, four 20× screening solutions in tracer dilution buffer (Promega) were prepared: two duplicates at final concentration of 20 μM and two duplicates at a final concentration of 2 μM. A competing unmodified compound was added to one of each duplicate at a final concentration of 400 μM. The four resulting solutions were diluted 4-fold in Opti-MEM without serum or phenol red to generate 5× solutions (5 µM and 0.5 µM tracer +/− 100 μM competing compound). To screen the library, a BioTek MultiFlo FX liquid dispenser was used to dispense 22.5 µL of tracer solution to the top 4 rows and 22.5 µL tracer + competing compound solution to the 4 bottom rows. Plates were briefly mixed on an orbital shaker and incubated for 1.5 h at room temperature. […]

PTGDR = biological target: T2, PTGDR (Homo sapiens, UniProt Q13258); experiment: NanoBRET screen HiBiT-PTGDR in HEK293; format: binding
T2 construct: purchased Promega (in-house HiBiT-GPCR construct library, NanoBRET)
T2 sequence (Q13258 1-359): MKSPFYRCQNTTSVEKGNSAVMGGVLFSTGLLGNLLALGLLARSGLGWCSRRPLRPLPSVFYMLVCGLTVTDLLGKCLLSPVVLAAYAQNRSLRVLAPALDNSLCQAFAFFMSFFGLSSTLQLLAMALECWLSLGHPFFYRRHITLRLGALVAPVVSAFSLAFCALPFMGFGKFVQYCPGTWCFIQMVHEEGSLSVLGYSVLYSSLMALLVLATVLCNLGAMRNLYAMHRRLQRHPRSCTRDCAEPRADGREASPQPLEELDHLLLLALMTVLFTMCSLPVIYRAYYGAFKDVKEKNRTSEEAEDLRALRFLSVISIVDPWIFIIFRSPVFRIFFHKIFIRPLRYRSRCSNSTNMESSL
Experimental: as §1, §2

T1 sequence (P28221 whole entry): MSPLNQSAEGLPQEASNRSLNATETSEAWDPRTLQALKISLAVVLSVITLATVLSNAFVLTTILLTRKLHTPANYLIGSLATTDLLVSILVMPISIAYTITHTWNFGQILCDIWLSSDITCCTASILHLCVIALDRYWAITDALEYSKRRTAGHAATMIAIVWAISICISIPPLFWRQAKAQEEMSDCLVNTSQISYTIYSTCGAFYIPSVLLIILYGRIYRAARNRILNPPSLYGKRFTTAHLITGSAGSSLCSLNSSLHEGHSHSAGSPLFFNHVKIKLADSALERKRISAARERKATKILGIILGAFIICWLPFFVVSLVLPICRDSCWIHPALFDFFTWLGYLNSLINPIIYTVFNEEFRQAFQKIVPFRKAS

SMILES | NanoBRET Fold Response (HTR1D; HTR1D, tracer 0.1μM) | NanoBRET Fold Response (HTR1D; HTR1D, tracer 1μM) | NanoBRET Fold Response (PTGDR; PTGDR, tracer 0.1μM) | NanoBRET Fold Response (PTGDR; PTGDR, tracer 1μM) | also measured
Cc1nc2n(c(=O)c1CCN1CCC(c3noc4cc(F)ccc34)CC1)CCCC2OC(=O)NCCOCCOCCOCCOCCNC(=O)CCc1ccc2n1[B-](F)(F)[N+]1=C(c3ccc[nH]3)C=CC1=C2 (stereo not drawn) [Risperidone-2-NB590] | 1.38 | 1.86 | 1.01 | 0.93 | –
CCOC(=O)c1cc(C#N)c(N2CCC(C(=O)NS(=O)(=O)Cc3ccccc3/C=C/C(=O)NCCNC(=O)CCc3ccc4n3[B-](F)(F)[N+]3=C(c5ccc[nH]5)C=CC3=C4)CC2)nc1C [AZD1283-1-NB590] | – | – | – | – | NanoBRET Fold Response (HTR1D; HTR1D, 0.1μM): 0.90; NanoBRET Fold Response (HTR1D; HTR1D, 1μM): 0.88; NanoBRET Fold Response (PTGDR; PTGDR, 0.1μM): 1.42; NanoBRET Fold Response (PTGDR; PTGDR, 1μM): 1.19
Cc1cc2c(s1)Nc1ccccc1N=C2N1CCN(CCCNC(=O)CCOCCOCCOCCOCCNC(=O)CCc2ccc3n2[B-](F)(F)[N+]2=C(c4ccc[nH]4)C=CC2=C3)CC1 [Olanzapine-a-2-NB590] | 1.03 | 1.29 | 0.95 | 1.09 | –
COc1ccccc1N1CCN(CCCCN2C(=O)c3ccc(CNC(=O)CCOCCNC(=O)c4ccc(CNC(=O)CCc5ccc6n5[B-](F)(F)[N+]5=C(c7ccc[nH]7)C=CC5=C6)cc4)cc3C2=O)CC1 [NAN-190-3-NB590] | 1.11 | 1.70 | 0.96 | 0.98 | –
CC(C)N(CC[C@H](c1ccccc1)c1cc(CCNC(=O)CCOCCOCCOCCOCCNC(=O)CCc2ccc3n2[B-](F)(F)[N+]2=C(c4ccc[nH]4)C=CC2=C3)ccc1O)C(C)C [Tolterodine-2-NB590] | 1.35 | 0.68 | 1.16 | 0.96 | –
CN(C)CCC=C1c2ccccc2CCc2ccc(C(=O)NCCNC(=O)CCOCCOCCOCCOCCNC(=O)CCc3ccc4n3[B-](F)(F)[N+]3=C(c5ccc[nH]5)C=CC3=C4)cc21 [Amitriptyline-b-2-NB590] | – | – | – | – | NanoBRET Fold Response (HTR1D; tracer at 0.1μM, listed as amitriptyline-b-2-NB590): 1.43; NanoBRET Fold Response (HTR1D; tracer at 1μM, listed as amitriptyline-b-2-NB590): 0.74; NanoBRET Fold Response (PTGDR; tracer at 1μM): 1.03
O=C(CCOCCOCCOCCOCCNC(=O)CCc1ccc2n1[B-](F)(F)[N+]1=C(c3ccc[nH]3)C=CC1=C2)NCCCN1CCN(C2=Nc3ccccc3Oc3ccc(Cl)cc32)CC1 [Loxapine-a-2-NB590] | 1.35 | 1.74 | 0.93 | 0.98 | –
CN(C)CCC=C1c2ccccc2CCc2ccc(C(=O)NCCNC(=O)CCOCCOCCOCCOCCNC(=O)CCc3ccc4n3[B-](F)(F)[N+]3=C(c5ccc[nH]5)C=CC3=C4)cc21 [Amitriptyline-a-2-NB590] | – | – | – | – | NanoBRET Fold Response (HTR1D; tracer at 0.1μM): 1.09; NanoBRET Fold Response (HTR1D; tracer at 1μM): 1.09
O=C(CCc1ccc2n1[B-](F)(F)[N+]1=C(c3ccc[nH]3)C=CC1=C2)NCCOCCOCCNC(=O)OCCOCCN1CCN(C2=Nc3ccccc3Sc3ccccc32)CC1 [Quetiapine-a-2-NB590] | 1.02 | 1.32 | 0.99 | 1.02 | –
COc1ccccc1N1CCN(CCCCN2C(=O)c3ccc(CNC(=O)CCOCCOCCOCCOCCNC(=O)CCc4ccc5n4[B-](F)(F)[N+]4=C(c6ccc[nH]6)C=CC4=C5)cc3C2=O)CC1 [NAN-190-2-NB590] | 1.35 | 1.41 | 0.97 | 1.01 | –
CN1CCN(C2=Nc3cc(Cl)ccc3N(CC(=O)NCCOCCOCCOCCOCCNC(=O)CCc3ccc4n3[B-](F)(F)[N+]3=C(c5ccc[nH]5)C=CC3=C4)c3ccccc32)CC1 [Clozapine-c-2-NB590] | – | – | – | – | NanoBRET Fold Response (HTR1D; HTR1D, 0.1μM tracer): 1.00; NanoBRET Fold Response (HTR1D; HTR1D, 1μM tracer): 1.00; NanoBRET Fold Response (PTGDR; PTGDR, 0.1μM tracer): 1.04; NanoBRET Fold Response (PTGDR; PTGDR, 1μM tracer): 1.07
N#CN/C(=N\CCNC(=O)c1ccc(N)cc1)NCCCOc1cccc(CN2CCCCC2)c1 [Aminopotentidine (unmodified)] | – | – | – | – | NanoBRET Fold Response (HTR1D; HTR1D, other tracers/Aminopotentidine (unmodified), 0.1μM): 1.06; NanoBRET Fold Response (HTR1D; HTR1D, other tracers/Aminopotentidine (unmodified), 1μM): 1.50
COc1ccc2[nH]c(-c3ccc(CNC(=O)CCOCCOCCOCCOCCNC(=O)CCc4ccc5n4[B-](F)(F)[N+]4=C(c6ccc[nH]6)C=CC4=C5)cc3)c(CCNC(C)=O)c2n1 [AzomelatoninICO9-2-NB590] | – | – | – | – | NanoBRET Fold Response (HTR1D; 0.1μM tracer): 0.63; NanoBRET Fold Response (HTR1D; 1μM tracer): 1.14; NanoBRET Fold Response (PTGDR; 0.1μM tracer): 1.06; NanoBRET Fold Response (PTGDR; 1μM tracer): 0.88
O=C(CCOCCOCCOCCOCCNC(=O)CCc1ccc2n1[B-](F)(F)[N+]1=C(c3ccc[nH]3)C=CC1=C2)NCCCN1CCN(C2=Nc3cc(Cl)ccc3Nc3ccccc32)CC1 [Clozapine-a-2-NB590] | – | – | – | – | NanoBRET Fold Response (HTR1D; HTR1D, 0.1μM tracer): 1.21; NanoBRET Fold Response (HTR1D; HTR1D, 1μM tracer): 1.67; NanoBRET Fold Response (PTGDR; PTGDR, 0.1μM tracer): 1.10; NanoBRET Fold Response (PTGDR; PTGDR, 1μM tracer): 0.99
CCCn1c(=O)c2[nH]c(-c3ccc(OCC(=O)NCCNC(=O)CCOCCNC(=O)c4ccc(CNC(=O)CCc5ccc6n5[B-](F)(F)[N+]5=C(c7ccc[nH]7)C=CC5=C6)cc4)cc3)nc2n(CCC)c1=O [XAC-3-NB590] | 0.47 | 0.65 | 1.02 | 1.06 | –
O=C(CCc1ccc2n1[B-](F)(F)[N+]1=C(c3ccc[nH]3)C=CC1=C2)NCc1ccc(C(=O)NCCOCCOCCNCC(O)COc2cccc3ccccc23)cc1 (stereo not drawn) [Propranolol-3-NB590] | – | – | – | – | NanoBRET Fold Response (HTR1D; HTR1D, 0.1μM): 1.24; NanoBRET Fold Response (HTR1D; HTR1D, 1μM): 0.96; NanoBRET Fold Response (PTGDR; PTGDR, 0.1μM): 1.05; NanoBRET Fold Response (PTGDR; PTGDR, 1μM): 0.98
O=C(CCc1ccc2n1[B-](F)(F)[N+]1=C(c3ccc[nH]3)C=CC1=C2)NCc1ccc(C(=O)NCCOCCC(=O)N[C@@H]2CC[C@@]3(O)[C@H]4Cc5ccc(O)c6c5[C@@]3(CCN4CC3CC3)[C@H]2O6)cc1 [Naltrexone-3-NB590] | 0.53 | 0.94 | 0.85 | 0.97 | –
CN(CCC=C1c2ccccc2CCc2ccccc21)C(=O)CCOCCOCCOCCOCCNC(=O)CCc1ccc2n1[B-](F)(F)[N+]1=C(c3ccc[nH]3)C=CC1=C2 [Amitriptyline-e-2-NB590] | – | – | – | – | NanoBRET Fold Response (HTR1D; tracer at 1μM): 0.96
N#CN=C(NCCCOc1cccc(CN2CCCCC2)c1)NCCNC(=O)CCOCCOCCOCCOCCNC(=O)CCc1ccc2n1[B-](F)(F)[N+]1=C(c3ccc[nH]3)C=CC1=C2 [Aminopotentidine-2-NB590] | 1.40 | 1.21 | 0.99 | 0.79 | –
COc1ccc2c(n1)c(CCNC(C)=O)cn2CCNC(=O)CCc1ccc2n1[B-](F)(F)[N+]1=C(c3ccc[nH]3)C=CC1=C2 [Azamelatonin-1-NB590] | – | – | – | – | NanoBRET Fold Response (HTR1D; 0.1μM tracer): 0.68; NanoBRET Fold Response (HTR1D; 1μM tracer): 0.68; NanoBRET Fold Response (PTGDR; 0.1μM tracer): 1.13; NanoBRET Fold Response (PTGDR; 1μM tracer): 1.18
